Experiment: mean ionic activity coefficient (dimensionless); mn = molality of the nth substance listed, in mol/kg
Conditions: 298.15 K, 101 kPa, Liquid

[Br-].[Cs+] [cesium bromide] + O
Conditions	mean ionic activity coefficient
m1 = 0.1	0.75
m1 = 0.2	0.689
m1 = 0.3	0.652
m1 = 0.4	0.625
m1 = 0.5	0.604
m1 = 0.6	0.587
m1 = 0.7	0.573
m1 = 0.8	0.561
m1 = 0.9	0.551
m1 = 1	0.542
m1 = 1.2	0.526
m1 = 1.4	0.514
m1 = 1.6	0.504
m1 = 1.8	0.495
m1 = 2	0.488
m1 = 2.5	0.475
m1 = 3	0.466
m1 = 3.5	0.461
m1 = 4	0.46
m1 = 4.5	0.46
m1 = 5	0.463

From the NIST ThermoML archive (doi:10.1021/je9007662)
